Values quoted from earlier work in patent EP0438873A1, “Inhibitor of ribonucleotide reductase of herpes viruses” (MERCK & CO. INC., priority 1989, dated 1991).
Where no end group is shown, it is not given here.

Test system: ribonucleotide reductase enzyme of herpes simplex virus
Details: from Dutia et al., Cohen et al., U.S. Patent No. 4,795,740

Tyr Ala Gly Ala Val Val Asn Asp Leu (YAGAVVNDL; printed: Tyr Ala Gly Ala Val Val Asn Asp Leu) [the nonapeptide disclosed by Dutia et al. and Cohen et al]
inhibited in vitro the activity of this enzyme (HSV ribonucleotide reductase): inhibited

YGAVVNDL [8-desalanine homolog of the nonapeptide, disclosed by Dutia et al]
inhibited in vitro the activity of this enzyme (HSV ribonucleotide reductase): inhibited
